Our source for the IC50 values is patent publication US20170334899A1, “AMINO-SUBSTITUTED ISOTHIAZOLES” (Bayer Pharma Aktiengesellschaft, priority 2014, published 2017).

In this assay the target is T1, CDK2/CycE (Homo sapiens, UniProt P24941).
T1 construct: GST; purchased ProQinase GmbH (Freiburg, Germany); host or cells: insect cells (Sf9)
Kind of assay: CDK2/CycE kinase assay (TR-FRET). It is filed as biochemical. Conditions: avg, read-out: CDK2 avg (IC50 [mol/l]). A digest of the protocol: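 Read-out is a TR-FRET 665/620 nm emission ratio from EDTA-stopped reactions detected with anti-pRB(pSer807/pSer811), Eu-labelled anti-mouse IgG and streptavidin-XL665, scaled between no-enzyme and uninhibited wells. Reaction: Sf9-expressed GST-CDK2/GST-CycE, 15 min compound preincubation, 10 μM ATP, 0.75 μM biotin-peptide, 25 min, 22° C., pH 8.0 Tris buffer.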
Background: Time-resolved FRET reads energy transfer from a long-lived donor to a nearby acceptor.

Each structure is given as a SMILES string.

Regarding `Cc1nsc(Nc2cnc(C(F)(F)F)cn2)c1C(=O)Nc1ccc(OC[C@@H]2CCCN(CC(F)F)C2)nc1` [Example 375, N-(6-{[(3R)-1-(2,2-difluoroethyl)piperidin-3-yl]methoxy}pyridin-3-yl)-3-methyl-5-{[5-(trifluoromethyl)pyrazin-2-yl]amino}-1,2-thiazole-4-carboxamide], the IC50 is > 20 µM.
